According to ChEMBL document CHEMBL1201862, “PubChem BioAssay data set” (2004):
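48-hour exposure; five concentrations; linearly interpolated endpoints. The concentration for 50% growth inhibition is given as GI50.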 Calls of active or inactive are those of the source. Cut-off read from the data, not from the text of the source: active = GI50 up to about 1.1 µM and inactive = higher.

What was measured:
Test in all cases: NCI-60 cell line screen, 48 h
786-0 = system: 786-0
A498 = system: A498
A549 = system: A549
ACHN = system: ACHN
CAKI-1 = system: CAKI-1
CCRF-CEM = system: CCRF-CEM
COLO 205 = system: COLO 205
DLD-1 = system: DLD-1
DMS-114 = system: DMS-114
DMS-273 = system: DMS-273
EKVX = system: EKVX
HCC 2998 = system: HCC 2998
HCT-116 = system: HCT-116
HCT-15 = system: HCT-15
HL-60 = system: HL-60
HOP-18 = system: HOP-18
HOP-92 = system: HOP-92
HT-29 = system: HT-29
IGROV-1 = system: IGROV-1
K562 = system: K562
KM-20L2 = system: KM-20L2
KM12 = system: KM12
LXFL 529 = system: LXFL 529
M14 = system: M14
M19-MEL = system: M19-MEL
MOLT-4 = system: MOLT-4
Malme-3M = system: Malme-3M
NCI-H226 = system: NCI-H226
NCI-H23 = system: NCI-H23
NCI-H460 = system: NCI-H460
NCI-H522 = system: NCI-H522
OVCAR-3 = system: OVCAR-3
OVCAR-4 = system: OVCAR-4
OVCAR-8 = system: OVCAR-8
RPMI-8226 = system: RPMI-8226
RXF 393 = system: RXF 393
SF-268 = system: SF-268
SF-295 = system: SF-295
SF-539 = system: SF-539
SK-MEL-28 = system: SK-MEL-28
SK-MEL-2 = system: SK-MEL-2
SK-MEL-5 = system: SK-MEL-5
SK-OV-3 = system: SK-OV-3
SN12C = system: SN12C
SNB-19 = system: SNB-19
SNB-75 = system: SNB-75
SR = system: SR
SW-620 = system: SW-620
TK-10 = system: TK-10
U-251 = system: U-251
UO-31 = system: UO-31
XF498 = system: XF498
HOP-62 = system: HOP-62
LOX IMVI = system: LOX IMVI
OVCAR-5 = system: OVCAR-5
SNB-78 = system: SNB-78
UACC-257 = system: UACC-257
UACC-62 = system: UACC-62
MCF7 = system: MCF7
NCI/ADR-RES = system: NCI/ADR-RES

Measured: GI50

c1cnc2c(c1)-n1cccc1C1(CCOCC1)NN2
> 100 µM: HCT-15
inactive: 786-0 > 100 µM | A498 > 100 µM | A549 > 100 µM | ACHN > 100 µM | CAKI-1 > 100 µM | CCRF-CEM > 100 µM | COLO 205 > 100 µM | DLD-1 > 100 µM | DMS-114 > 100 µM | DMS-273 > 100 µM | EKVX > 100 µM | HCC 2998 > 100 µM | HCT-116 > 100 µM | HL-60 > 100 µM | HOP-18 > 100 µM | HOP-92 > 100 µM | HT-29 > 100 µM | IGROV-1 > 100 µM | K562 > 100 µM | KM-20L2 > 100 µM | KM12 > 100 µM | LXFL 529 > 100 µM | M14 > 100 µM | M19-MEL > 100 µM | MOLT-4 > 100 µM | Malme-3M > 100 µM | NCI-H226 > 100 µM | NCI-H23 > 100 µM | NCI-H460 > 100 µM | NCI-H522 > 100 µM | OVCAR-3 > 100 µM | OVCAR-4 > 100 µM | OVCAR-8 > 100 µM | RPMI-8226 > 100 µM | RXF 393 > 100 µM | SF-268 > 100 µM | SF-295 > 100 µM | SF-539 > 100 µM | SK-MEL-28 > 100 µM | SK-MEL-2 > 100 µM | SK-MEL-5 > 100 µM | SK-OV-3 > 100 µM | SN12C > 100 µM | SNB-19 > 100 µM | SNB-75 > 100 µM | SR > 100 µM | SW-620 > 100 µM | TK-10 > 100 µM | U-251 > 100 µM | UO-31 > 100 µM | XF498 > 100 µM

Cc1ccc(NC(=O)C2C(=O)N(c3ccc(C)cc3)C(=O)/C2=N\NC(N)=S)cc1 (configuration not stated)
> 100 µM: HCT-15
inactive: 786-0 > 100 µM | A498 > 100 µM | ACHN > 100 µM | CAKI-1 > 100 µM | COLO 205 > 100 µM | DMS-114 > 100 µM | DMS-273 > 100 µM | EKVX > 100 µM | HCC 2998 > 100 µM | HCT-116 > 100 µM | HOP-18 > 100 µM | HOP-62 > 100 µM | HOP-92 > 100 µM | HT-29 > 100 µM | IGROV-1 > 100 µM | K562 > 100 µM | KM-20L2 > 100 µM | KM12 > 100 µM | LOX IMVI > 100 µM | LXFL 529 > 100 µM | M14 > 100 µM | M19-MEL > 100 µM | MOLT-4 > 100 µM | Malme-3M > 100 µM | NCI-H226 > 100 µM | NCI-H23 > 100 µM | NCI-H460 > 100 µM | NCI-H522 > 100 µM | OVCAR-3 > 100 µM | OVCAR-4 > 100 µM | OVCAR-5 > 100 µM | OVCAR-8 > 100 µM | RPMI-8226 > 100 µM | RXF 393 > 100 µM | SF-268 > 100 µM | SF-295 > 100 µM | SF-539 > 100 µM | SK-MEL-28 > 100 µM | SK-MEL-2 > 100 µM | SK-MEL-5 > 100 µM | SK-OV-3 > 100 µM | SN12C > 100 µM | SNB-19 > 100 µM | SNB-75 > 100 µM | SNB-78 > 100 µM | SW-620 > 100 µM | TK-10 > 100 µM | U-251 > 100 µM | UACC-257 > 100 µM | UACC-62 > 100 µM | UO-31 > 100 µM | XF498 > 100 µM

CCOC(=O)C(=O)Nc1ccc(Cl)cc1C
> 100 µM: HCT-15
inactive: 786-0 > 100 µM | A549 > 100 µM | ACHN > 100 µM | CAKI-1 > 100 µM | CCRF-CEM > 100 µM | COLO 205 > 100 µM | DLD-1 > 100 µM | DMS-114 > 100 µM | DMS-273 > 100 µM | EKVX > 100 µM | HCC 2998 > 100 µM | HCT-116 > 100 µM | HL-60 > 100 µM | HOP-18 > 100 µM | HOP-62 > 100 µM | HOP-92 > 100 µM | HT-29 > 100 µM | IGROV-1 > 100 µM | K562 > 100 µM | KM-20L2 > 100 µM | KM12 > 100 µM | LOX IMVI > 100 µM | LXFL 529 > 100 µM | M14 > 100 µM | M19-MEL > 100 µM | MOLT-4 > 100 µM | Malme-3M > 100 µM | NCI-H226 > 100 µM | NCI-H23 > 100 µM | NCI-H460 > 100 µM | NCI-H522 > 100 µM | OVCAR-3 > 100 µM | OVCAR-4 > 100 µM | OVCAR-5 > 100 µM | OVCAR-8 > 100 µM | RPMI-8226 > 100 µM | RXF 393 > 100 µM | SF-268 > 100 µM | SF-295 > 100 µM | SF-539 > 100 µM | SK-MEL-28 > 100 µM | SK-MEL-2 > 100 µM | SK-MEL-5 > 100 µM | SK-OV-3 > 100 µM | SN12C > 100 µM | SNB-19 > 100 µM | SNB-75 > 100 µM | SNB-78 > 100 µM | SR > 100 µM | SW-620 > 100 µM | TK-10 > 100 µM | U-251 > 100 µM | UACC-257 > 100 µM | UACC-62 > 100 µM | UO-31 > 100 µM | XF498 > 100 µM

CC(C)(C)/N=C\N(C=C(c1ccccc1)c1ccccc1)C1CCCCC1
inactive: 786-0 82.4 µM | A498 23.3 µM | A549 81.3 µM | ACHN 36.4 µM | CAKI-1 50.6 µM | CCRF-CEM 34.8 µM | COLO 205 22.7 µM | DLD-1 23.1 µM | DMS-114 19.2 µM | DMS-273 46.6 µM | EKVX 93.1 µM | HCT-116 23.4 µM | HOP-18 52.2 µM | HOP-62 > 100 µM | HOP-92 17.9 µM | HT-29 25.9 µM | IGROV-1 50.9 µM | K562 17.7 µM | KM-20L2 16.9 µM | KM12 36.2 µM | LOX IMVI 25.2 µM | M19-MEL 44.2 µM | Malme-3M 17.1 µM | NCI-H23 40.3 µM | NCI-H460 38.2 µM | OVCAR-3 29.8 µM | OVCAR-4 39.4 µM | OVCAR-5 35.1 µM | OVCAR-8 91.8 µM | RXF 393 19.4 µM | SF-268 41.1 µM | SF-295 32 µM | SF-539 50.5 µM | SK-MEL-28 35 µM | SK-MEL-2 60.8 µM | SK-MEL-5 16.5 µM | SN12C 43.4 µM | SNB-19 > 100 µM | SNB-75 33.7 µM | SNB-78 69 µM | SR 18 µM | SW-620 36.3 µM | TK-10 78.3 µM | U-251 32.1 µM | UACC-257 33.3 µM | UACC-62 44.1 µM | XF498 16.6 µM
28.5 µM: HCT-15

CN(C)CCNC(=O)c1cccc2c(=O)c3ccccc3oc12
inactive: A498 21.1 µM | A549 39 µM | CCRF-CEM 35.4 µM | COLO 205 13.1 µM | DLD-1 29.6 µM | DMS-114 28.1 µM | DMS-273 28.8 µM | EKVX > 66.1 µM | HCC 2998 60 µM | HCT-116 13.7 µM | HL-60 29.2 µM | HOP-18 48 µM | HOP-62 38.5 µM | HOP-92 20.1 µM | HT-29 25.4 µM | IGROV-1 40.6 µM | K562 40.8 µM | KM-20L2 34.9 µM | KM12 35.4 µM | LOX IMVI 20.7 µM | M19-MEL 22.9 µM | MCF7 26.7 µM | MOLT-4 41.3 µM | Malme-3M 25 µM | NCI-H226 25.2 µM | NCI-H23 35.3 µM | NCI-H460 28.2 µM | NCI/ADR-RES 27.6 µM | OVCAR-3 37.8 µM | OVCAR-4 34.5 µM | OVCAR-5 24.3 µM | OVCAR-8 27.7 µM | RPMI-8226 29.2 µM | RXF 393 43.1 µM | SF-268 45.2 µM | SF-295 30.3 µM | SF-539 53.3 µM | SK-MEL-28 33.7 µM | SK-MEL-2 35.9 µM | SK-MEL-5 25.2 µM | SK-OV-3 25.1 µM | SN12C 24.3 µM | SNB-19 36.9 µM | SNB-75 32.4 µM | SNB-78 37.1 µM | SW-620 34.4 µM | U-251 44.4 µM | UACC-257 26.9 µM | UACC-62 32.2 µM | UO-31 18.1 µM | XF498 31.3 µM
37.4 µM: HCT-15
